Test results taken from PubChem BioAssay AID1963833 (Molecular Pharmacology Branch, DTP, NCI, 2024).

System: 883617-216-R-J1-PDC complex spheroid viability
Test: Anticancer human tumor 883617-216-R-J1-PDC patient-derived bladder carcinoma cell line growth inhibition [POLQ]
Conditions: for IC50: curve of first compound; for viability, T/C: stronger effect = lower value
How it was run: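 PDC + HUVEC + MSC complex spheroids; POLQ inhibitors ± partner drugs; top conc. at/near clinical Cmax, else 10 microM (SN-38 1 microM), half-log dilutions; 37 degrees C, 5% CO2.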

[1] = second compound 0.0316 µM, first compound 0.0316 µM
[2] = second compound 0.0316 µM, first compound 0.1 µM
[3] = second compound 0.0316 µM, first compound 0.316 µM
[4] = second compound 0.0316 µM, first compound 1 µM
[5] = second compound 0.0316 µM, first compound 3.16 µM
[6] = second compound 0.0316 µM, first compound 10 µM
[7] = second compound 0.1 µM, first compound 0.0316 µM
[8] = second compound 0.1 µM, first compound 0.1 µM
[9] = second compound 0.1 µM, first compound 0.316 µM
[10] = second compound 0.1 µM, first compound 1 µM
[11] = second compound 0.1 µM, first compound 3.16 µM
[12] = second compound 0.1 µM, first compound 10 µM
[13] = second compound 0.316 µM, first compound 0.0316 µM
[14] = second compound 0.316 µM, first compound 0.1 µM
[15] = second compound 0.316 µM, first compound 0.316 µM
[16] = second compound 0.316 µM, first compound 1 µM
[17] = second compound 0.316 µM, first compound 3.16 µM
[18] = second compound 0.316 µM, first compound 10 µM
[19] = second compound 1 µM, first compound 0.0316 µM
[20] = second compound 1 µM, first compound 0.1 µM
[21] = second compound 1 µM, first compound 0.316 µM
[22] = second compound 1 µM, first compound 1 µM
[23] = second compound 1 µM, first compound 3.16 µM
[24] = second compound 1 µM, first compound 10 µM
[25] = second compound 3.16 µM, first compound 0.0316 µM
[26] = second compound 3.16 µM, first compound 0.1 µM
[27] = second compound 3.16 µM, first compound 0.316 µM
[28] = second compound 3.16 µM, first compound 1 µM
[29] = second compound 3.16 µM, first compound 3.16 µM
[30] = second compound 3.16 µM, first compound 10 µM
[31] = second compound 10 µM, first compound 0.0316 µM
[32] = second compound 10 µM, first compound 0.1 µM
[33] = second compound 10 µM, first compound 0.316 µM
[34] = second compound 10 µM, first compound 1 µM
[35] = second compound 10 µM, first compound 3.16 µM
[36] = second compound 10 µM, first compound 10 µM
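Also: spheroids exposed to compounds for seven days before readout.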
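For viability, T/C in this document: 100% = DMSO vehicle control viability.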

O=C(Nc1ccc(O)c(NS(=O)(=O)c2ccc(F)cc2)c1)c1ccc(-c2ccccc2)cc1 + Nc1ccc(C#CCN(C(=O)Cc2ncc(C(F)(F)F)cc2C(F)(F)F)c2ccc(F)cc2)nn1
IC50 (second compound 0.0316 µM): > 10 µM | IC50 (second compound 0.1 µM): > 10 µM | IC50 (second compound 0.316 µM): > 10 µM | IC50 (second compound 1 µM): > 10 µM | IC50 (second compound 3.16 µM): > 10 µM | IC50 (second compound 10 µM): > 10 µM | viability, T/C [1]: 91.5% | viability, T/C [2]: 92.5% | viability, T/C [3]: 102% | viability, T/C [4]: 82.8% | viability, T/C [5]: 79.3% | viability, T/C [6]: 71% | viability, T/C [7]: 106% | viability, T/C [8]: 104% | viability, T/C [9]: 90.1% | viability, T/C [10]: 84.1% | viability, T/C [11]: 88.4% | viability, T/C [12]: 70.1% | viability, T/C [13]: 90.4% | viability, T/C [14]: 102% | viability, T/C [15]: 97.6% | viability, T/C [16]: 85.5% | viability, T/C [17]: 81.7% | viability, T/C [18]: 72.5% | viability, T/C [19]: 91.8% | viability, T/C [20]: 95.4% | viability, T/C [21]: 96.3% | viability, T/C [22]: 84.3% | viability, T/C [23]: 87.9% | viability, T/C [24]: 66.1% | viability, T/C [25]: 101% | viability, T/C [26]: 101% | viability, T/C [27]: 104% | viability, T/C [28]: 88.1% | viability, T/C [29]: 86.5% | viability, T/C [30]: 72.2% | viability, T/C [31]: 116% | viability, T/C [32]: 108% | viability, T/C [33]: 115% | viability, T/C [34]: 97.8% | viability, T/C [35]: 117% | viability, T/C [36]: 72.6%

C=CCn1c(=O)c2cnc(Nc3ccc(N4CCN(C)CC4)cc3)nc2n1-c1cccc(C(C)(C)O)n1 + COC1C(OC(N)=O)C(O)C(Oc2ccc3c(O)c(NC(=O)c4ccc(O)c(CC=C(C)C)c4)c(=O)oc3c2C)OC1(C)C
IC50 (second compound 0.0316 µM): 0.916 µM | IC50 (second compound 0.1 µM): 0.811 µM | IC50 (second compound 0.316 µM): 0.945 µM | IC50 (second compound 1 µM): 0.889 µM | IC50 (second compound 3.16 µM): 0.883 µM | IC50 (second compound 10 µM): 0.82 µM | viability, T/C (second compound 0.0316 µM, first compound 0.00316 µM): 113% | viability, T/C (second compound 0.0316 µM, first compound 0.01 µM): 97.9% | viability, T/C [1]: 112% | viability, T/C [2]: 94.7% | viability, T/C [3]: 84.6% | viability, T/C [4]: 47% | viability, T/C (second compound 0.1 µM, first compound 0.00316 µM): 101% | viability, T/C (second compound 0.1 µM, first compound 0.01 µM): 91.9% | viability, T/C [7]: 98.9% | viability, T/C [8]: 120% | viability, T/C [9]: 85.9% | viability, T/C [10]: 42% | viability, T/C (second compound 0.316 µM, first compound 0.00316 µM): 121% | viability, T/C (second compound 0.316 µM, first compound 0.01 µM): 99.8% | viability, T/C [13]: 104% | viability, T/C [14]: 107% | viability, T/C [15]: 77.8% | viability, T/C [16]: 48.6% | viability, T/C (second compound 1 µM, first compound 0.00316 µM): 103% | viability, T/C (second compound 1 µM, first compound 0.01 µM): 95.2% | viability, T/C [19]: 105% | viability, T/C [20]: 112% | viability, T/C [21]: 92.2% | viability, T/C [22]: 45.2% | viability, T/C (second compound 3.16 µM, first compound 0.00316 µM): 106% | viability, T/C (second compound 3.16 µM, first compound 0.01 µM): 101% | viability, T/C [25]: 98.6% | viability, T/C [26]: 104% | viability, T/C [27]: 90% | viability, T/C [28]: 44.8% | viability, T/C (second compound 10 µM, first compound 0.00316 µM): 104% | viability, T/C (second compound 10 µM, first compound 0.01 µM): 87.1% | viability, T/C [31]: 105% | viability, T/C [32]: 91.6% | viability, T/C [33]: 84% | viability, T/C [34]: 42.8%

COc1cc(C2c3cc4c(cc3C(OC3OC5COC(C)OC5C(O)C3O)C3COC(=O)C23)OCO4)cc(OC)c1O (stereo unspecified) + Nc1ccc(C#CCN(C(=O)Cc2ncc(C(F)(F)F)cc2C(F)(F)F)c2ccc(F)cc2)nn1
IC50 (second compound 0.0316 µM): > 10 µM | IC50 (second compound 0.1 µM): > 10 µM | IC50 (second compound 0.316 µM): > 10 µM | IC50 (second compound 1 µM): > 10 µM | IC50 (second compound 3.16 µM): > 10 µM | IC50 (second compound 10 µM): > 10 µM | viability, T/C [1]: 103% | viability, T/C [2]: 99.1% | viability, T/C [3]: 65.7% | viability, T/C [4]: 82.1% | viability, T/C [5]: 67.5% | viability, T/C [6]: 60% | viability, T/C [7]: 112% | viability, T/C [8]: 98.8% | viability, T/C [9]: 81% | viability, T/C [10]: 75.9% | viability, T/C [11]: 69.4% | viability, T/C [12]: 59.6% | viability, T/C [13]: 104% | viability, T/C [14]: 105% | viability, T/C [15]: 92.3% | viability, T/C [16]: 64.4% | viability, T/C [17]: 69.7% | viability, T/C [18]: 54% | viability, T/C [19]: 104% | viability, T/C [20]: 102% | viability, T/C [21]: 83.2% | viability, T/C [22]: 80% | viability, T/C [23]: 87.8% | viability, T/C [24]: 62.1% | viability, T/C [25]: 91.8% | viability, T/C [26]: 117% | viability, T/C [27]: 81.8% | viability, T/C [28]: 73.2% | viability, T/C [29]: 69.1% | viability, T/C [30]: 58.6% | viability, T/C [31]: 101% | viability, T/C [32]: 107% | viability, T/C [33]: 92.3% | viability, T/C [34]: 75% | viability, T/C [35]: 80.7% | viability, T/C [36]: 70.5%
